# In US20230072683A1, “PYRIDO-PYRIMIDIN DERIVATIVES AND PHARMACEUTICAL COMPOSITION, FOR USE IN PREVENTING OR TREATING PI3 KINASE RELATED DISEASES, COMPRISING SAME AS ACTIVE INGREDIENT” (BORYUNG PHARMACEUTICAL CO., LTD, priority 2019, published 2023):
# Columns and labels:
# DNA-PK(h) = DNA-PK(h) (Homo sapiens, UniProt P78527); test: Evaluation of inhibitory activity against DNA-PK (HTRF kinase assay, GST-cMyc-p53 substrate); type: biochemical; conditions: compound concentration 0.01 μM; read-out: EXP_VALUE(% Inhibition) DNA-PK(h) 0.01 μM
# Protocol: <Experimental Example 2> Evaluation of Inhibitory Activity Properties Against DNA-PK
# The following experiments were performed to verify the inhibitory activity against DNA-PK with regard to each of the compounds of Examples 1 to 441 according to the present invention.
# DNA-PK(h) was subjected to an isothermal treatment in an assay buffer comprising […] GST-cMyc-p53 and Mg/ATP (at a concentration as required). The reaction was initiated by the addition of a Mg/ATP mixture, and after incubation for 30 minutes at room temperature, a stop solution comprising EDTA was added to stop the reaction. A detection buffer comprising d2-labelled anti-GST monoclonal antibody and Europium-labelled anti-phospho Ser15 antibody for phosphorylated p53 was added. A plate was read in a time-resolved fluorescence mode and a homogeneous time-resolved fluorescence (HTRF) signal was determined according to HTRF=10000×(Em 665 nm/Em 620 nm).
# [1] = target: PI3K-δ (PI3K(p1108/p857) (h)) (Homo sapiens, UniProt O00329); test: Evaluation of inhibitory activity against PI3K-δ (HTRF kinase assay); type: biochemical; conditions: compound concentration 0.01 μM; read-out: EXP_VALUE(% Inhibition) PI3K-δ 0.01 μM
# Sequence of PI3K-δ (PI3K(p1108/p857) (h)) (O00329 whole entry): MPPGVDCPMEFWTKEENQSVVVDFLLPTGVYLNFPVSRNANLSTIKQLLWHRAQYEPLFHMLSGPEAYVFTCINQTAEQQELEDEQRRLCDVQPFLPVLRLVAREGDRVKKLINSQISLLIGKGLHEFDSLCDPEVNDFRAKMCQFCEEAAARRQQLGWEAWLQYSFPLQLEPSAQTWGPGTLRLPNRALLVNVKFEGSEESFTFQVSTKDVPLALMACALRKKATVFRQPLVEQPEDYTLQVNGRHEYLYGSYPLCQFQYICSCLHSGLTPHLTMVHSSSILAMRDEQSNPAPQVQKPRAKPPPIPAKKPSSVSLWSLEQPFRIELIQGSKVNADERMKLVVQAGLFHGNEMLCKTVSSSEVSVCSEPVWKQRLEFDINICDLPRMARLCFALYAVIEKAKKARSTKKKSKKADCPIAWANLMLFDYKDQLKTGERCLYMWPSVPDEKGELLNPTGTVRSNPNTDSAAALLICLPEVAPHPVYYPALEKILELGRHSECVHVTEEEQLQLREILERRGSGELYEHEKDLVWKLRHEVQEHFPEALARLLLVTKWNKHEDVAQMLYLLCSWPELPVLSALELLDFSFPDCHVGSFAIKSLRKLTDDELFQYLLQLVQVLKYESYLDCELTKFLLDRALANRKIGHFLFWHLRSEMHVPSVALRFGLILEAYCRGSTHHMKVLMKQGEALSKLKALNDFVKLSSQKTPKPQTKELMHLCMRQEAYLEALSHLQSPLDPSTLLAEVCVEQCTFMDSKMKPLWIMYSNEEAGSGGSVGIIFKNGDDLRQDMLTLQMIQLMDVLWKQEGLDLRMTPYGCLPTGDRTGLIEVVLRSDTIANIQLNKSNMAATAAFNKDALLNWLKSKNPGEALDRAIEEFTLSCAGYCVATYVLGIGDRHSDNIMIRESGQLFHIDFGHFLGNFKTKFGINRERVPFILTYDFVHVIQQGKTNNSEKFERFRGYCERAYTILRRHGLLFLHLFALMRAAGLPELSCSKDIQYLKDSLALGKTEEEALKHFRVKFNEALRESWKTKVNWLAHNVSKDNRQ
# Sequence of PI3K-δ (PI3K(p1108/p857) (h)) (P27986 whole entry partner): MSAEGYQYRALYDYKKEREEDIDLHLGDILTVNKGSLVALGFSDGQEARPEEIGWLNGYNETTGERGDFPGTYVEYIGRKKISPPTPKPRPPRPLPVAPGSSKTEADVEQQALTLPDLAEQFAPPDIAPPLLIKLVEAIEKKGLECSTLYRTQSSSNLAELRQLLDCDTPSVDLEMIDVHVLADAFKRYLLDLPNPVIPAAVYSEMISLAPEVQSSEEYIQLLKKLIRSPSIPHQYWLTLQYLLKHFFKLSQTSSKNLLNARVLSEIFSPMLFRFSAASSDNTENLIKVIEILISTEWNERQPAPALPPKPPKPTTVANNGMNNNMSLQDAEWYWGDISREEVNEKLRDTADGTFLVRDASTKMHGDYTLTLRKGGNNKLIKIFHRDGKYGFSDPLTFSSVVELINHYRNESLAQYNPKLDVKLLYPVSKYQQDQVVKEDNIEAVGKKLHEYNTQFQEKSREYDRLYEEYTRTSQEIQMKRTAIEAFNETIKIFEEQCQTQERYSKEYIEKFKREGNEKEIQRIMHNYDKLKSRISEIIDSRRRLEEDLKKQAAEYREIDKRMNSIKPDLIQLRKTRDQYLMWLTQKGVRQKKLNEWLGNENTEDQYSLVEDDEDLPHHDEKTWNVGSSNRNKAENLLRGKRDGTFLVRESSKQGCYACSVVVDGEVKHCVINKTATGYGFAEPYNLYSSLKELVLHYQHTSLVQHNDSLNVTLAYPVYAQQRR
# Protocol: <Experimental Example 1> Evaluation of Inhibitory Activity Properties Against PI3K-δ
# The following experiments were performed to verify the inhibitory activity against PI3K-δ with regard to each of the compounds of Examples 1 to 441 according to the present invention.
# PI3K(p1108/p857) (h) was incubated in assay buffer comprising 10 μM phosphatidylinositol-4,5-bisphosphate and Mg/ATP (at a concentration as required). The reaction was initiated by the addition of a Mg/ATP mixture, and after incubation for 30 minutes at room temperature, a stop solution comprising EDTA and phosphatidylinositol-3,4,5-triphosphate was added to stop the reaction and carry out biotinylation.
# A detection buffer comprising Eu (europium)-labelled anti-GST monoclonal antibody, GST-tagged GRP1 PH domain and streptavidin-allophycocyanin was added. A plate was read in a time-resolved fluorescence mode and a homogeneous time-resolved fluorescence (HTRF) signal was determined according to HTRF=10000×(Em 665 nm/Em 620 nm).
Compound,inhibition at 0.01 µM (DNA-PK(h)) [%],inhibition at 0.01 µM [1] [%]
"C[C@H](Nc1ncnc2[nH]ccc(=O)c12)c1c(Cl)c2cccc(-c3cnc(C(C)(C)O)nc3)c2c(=O)n1-c1ccccc1 [Example 26, (S)-4-((1-(4-chloro-8-(2-(2-hydroxypropan-2-yl)pyrimidin-5-yl)-1-oxo-2-phenyl-1,2-dihydroisoquinolin-3-yl)ethyl)amino)pyrido[2,3-d]pyrimidin-5(8H)-one]",66,92
"C[C@H](Nc1ncnc2[nH]ccc(=O)c12)c1c(Cl)c2cccc(-c3cc4[nH]ncc4cn3)c2c(=O)n1-c1ccccc1 [Example 27, (S)-4-((1-(4-chloro-1-oxo-2-phenyl-8-(1H-pyrazolo[4,3-c]pyridin-6-yl)-1,2-dihydroisoquinolin-3-yl)ethyl)amino)pyrido[2,3-d]pyrimidin-5(8H)-one]",34,76
"COc1ncc(-c2cccc3c(Cl)c([C@H](C)Nc4ncnc5[nH]ccc(=O)c45)n(-c4ccccc4)c(=O)c23)nc1OC [Example 28, (S)-4-((1-(4-chloro-8-(5,6-dimethoxypyrazin-2-yl)-1-oxo-2-phenyl-1,2-dihydroisoquinolin-3-yl)ethyl)amino)pyrido[2,3-d]pyrimidin-5(8H)-one]",61,69
"C[C@H](Nc1ncnc2[nH]ccc(=O)c12)c1c(Cl)c2cccc(-c3ccc(-c4nccs4)cc3)c2c(=O)n1-c1ccccc1 [Example 29, (S)-4-((1-(4-chloro-1-oxo-2-phenyl-8-(4-(thiazol-2-yl)phenyl)-1,2-dihydroisoquinolin-3-yl)ethyl)amino)pyrido[2,3-d]pyrimidin-5(8H)-one]",99,70
"COc1cnc(-c2cccc3c(Cl)c([C@H](C)Nc4ncnc5[nH]ccc(=O)c45)n(-c4ccccc4)c(=O)c23)nc1 [Example 30, (S)-4-((1-(4-chloro-8-(5-methoxypyrimidin-2-yl)-1-oxo-2-phenyl-1,2-dihydroisoquinolin-3-yl)ethyl)amino)pyrido[2,3-d]pyrimidin-5(8H)-one]",101,12
"C[C@H](Nc1ncnc2[nH]ccc(=O)c12)c1c(Cl)c2cccc(-c3ccc(C#N)cn3)c2c(=O)n1-c1ccccc1 [Example 31, (S)-6-(4-chloro-1-oxo-3-(1-((5-oxo-5,8-dihydropyrido[2,3-d]pyrimidin-4-yl)amino)ethyl)-2-phenyl-1,2-dihydroisoquinolin-8-yl) nicotinonitrile]",2,0
"C[C@H](Nc1ncnc2[nH]ccc(=O)c12)c1c(Cl)c2cccc(-c3ccc4ncncc4c3)c2c(=O)n1-c1ccccc1 [Example 32, (S)-4-((1-(4-chloro-1-oxo-2-phenyl-8-(quinazolin-6-yl)-1,2-dihydroisoquinolin-3-yl)ethyl)amino)pyrido[2,3-d]pyrimidin-5(8H)-one]",75,96
"C[C@H](Nc1ncnc2[nH]ccc(=O)c12)c1c(Cl)c2cccc(-c3ccc(-c4ccon4)cc3)c2c(=O)n1-c1ccccc1 [Example 33, (S)-4-((1-(4-chloro-8-(4-(isoxazol-3-yl)phenyl)-1-oxo-2-phenyl-1,2-dihydroisoquinolin-3-yl)ethyl)amino)pyrido[2,3-d]pyrimidin-5(8H)-one]",48,92
"C[C@H](Nc1ncnc2[nH]ccc(=O)c12)c1c(Cl)c2cccc(-c3ccc(C(C)(C)C)nc3)c2c(=O)n1-c1ccccc1 [Example 34, (S)-4-((1-(8-(6-(tert-butyl)pyridin-3-yl)-4-chloro-1-oxo-2-phenyl-1,2-dihydroisoquinolin-3-yl)ethyl)amino)pyrido[2,3-d]pyrimidin-5(8H)-one]",56,74
"C[C@H](Nc1ncnc2[nH]ccc(=O)c12)c1c(Cl)c2cccc(-c3ncccn3)c2c(=O)n1-c1ccccc1 [Example 35, (S)-4-((1-(4-chloro-1-oxo-2-phenyl-8-(pyrimidin-2-yl)-1,2-dihydroisoquinolin-3-yl)ethyl)amino)pyrido[2,3-d]pyrimidin-5(8H)-one]",7,21
"C[C@H](Nc1ncnc2[nH]ccc(=O)c12)c1c(Cl)c2cccc(-c3cc(O)c(O)c(F)c3)c2c(=O)n1-c1ccccc1 [Example 36, (S)-4-((1-(4-chloro-8-(3-fluoro-4,5-dihydroxyphenyl)-1-oxo-2-phenyl-1,2-dihydroisoquinolin-3-yl)ethyl)amino)pyrido[2,3-d]pyrimidin-5(8H)-one]",34,74
"C[C@H](Nc1ncnc2[nH]ccc(=O)c12)c1c(Cl)c2cccc(-c3ccc4nncn4c3)c2c(=O)n1-c1ccccc1 [Example 37, (S)-4-((1-(8-([1,2,4]triazolo[4,3-a]pyridin-6-yl)-4-chloro-1-oxo-2-phenyl-1,2-dihydroisoquinolin-3-yl)ethyl)amino)pyrido[2,3-d]pyrimidin-5(8H)-one]",60,89
"C[C@H](Nc1ncnc2[nH]ccc(=O)c12)c1c(Cl)c2ccccc2c(=O)n1-c1ccccc1 [Example 38, (S)-4-((1-(4-chloro-1-oxo-2-phenyl-1,2-dihydroisoquinolin-3-yl)ethyl)amino)pyrido[2,3-d]pyrimidin-5(8H)-one]",46,71
"C[C@H](Nc1ncnc2[nH]ccc(=O)c12)c1c(Cl)c2cccc(-c3cnc(CC#N)nc3)c2c(=O)n1-c1ccccc1 [Example 39, (S)-2-(5-(4-chloro-1-oxo-3-(1-((5-oxo-5,8-dihydropyrido[2,3-d]pyrimidin-4-yl)amino)ethyl)-2-phenyl-1,2-dihydroisoquinolin-8-yl)pyrimidin-2-yl)acetonitrile]",57,47
"C[C@H](Nc1ncnc2[nH]ccc(=O)c12)c1c(Cl)c2cccc(-c3cnc4nncn4c3)c2c(=O)n1-c1ccccc1 [Example 40, (S)-4-((1-(8-([1,2,4]triazolo[4,3-a]pyrimidin-6-yl)-4-chloro-1-oxo-2-phenyl-1,2-dihydroisoquinolin-3-yl)ethyl)amino)pyrido[2,3-d]pyrimidin-5(8H)-one]",61,67
"COc1ccc(-c2cccc3c(Cl)c([C@H](C)Nc4ncnc5[nH]ccc(=O)c45)n(-c4ccccc4)c(=O)c23)nc1 [Example 41, (S)-4-((1-(4-chloro-8-(5-methoxypyridin-2-yl)-1-oxo-2-phenyl-1,2-dihydroisoquinolin-3-yl)ethyl)amino)pyrido[2,3-d]pyrimidin-5(8H)-one]",79,89
"C[C@H](Nc1ncnc2[nH]ccc(=O)c12)c1c(Cl)c2cccc(-c3ccc4ncnn4c3)c2c(=O)n1-c1ccccc1 [Example 42, (S)-4-((1-(8-([1,2,4]triazolo[1,5-a]pyridin-6-yl)-4-chloro-1-oxo-2-phenyl-1,2-dihydroisoquinolin-3-yl)ethyl)amino)pyrido[2,3-d]pyrimidin-5(8H)-one]",76,89
"COc1cnc(-n2ccc(=O)c3c(N[C@@H](C)c4c(Cl)c5ccccc5c(=O)n4-c4ccccc4)ncnc32)nc1 [Example 43, (S)-4-((1-(4-chloro-1-oxo-2-phenyl-1,2-dihydroisoquinolin-3-yl)ethyl)amino)-8-(5-methoxypyrimidin-2-yl)pyrido[2,3-d]pyrimidin-5(8H)-one]",3,9
"C[C@H](Nc1ncnc2[nH]ccc(=O)c12)c1c(Cl)c2cccc(-c3cnc(C#N)nc3)c2c(=O)n1-c1ccccc1 [Example 44, (S)-5-(4-chloro-1-oxo-3-(1-((5-oxo-5,8-dihydropyrido[2,3-d]pyrimidin-4-yl)amino)ethyl)-2-phenyl-1,2-dihydroisoquinolin-8-yl)pyrimidine-2-carbonitrile]",43,79
"COc1cc(-c2cccc3c(Cl)c([C@H](C)Nc4ncnc5[nH]ccc(=O)c45)n(-c4ccccc4)c(=O)c23)ncn1 [Example 45, (S)-4-((1-(4-chloro-8-(6-methoxypyrimidin-4-yl)-1-oxo-2-phenyl-1,2-dihydroisoquinolin-3-yl)ethyl)amino)pyrido[2,3-d]pyrimidin-5(8H)-one]",2,10
"C[C@H](Nc1ncnc2[nH]ccc(=O)c12)c1c(Cl)c2cccc(-c3ccc(C4CC4)nc3)c2c(=O)n1-c1ccccc1 [Example 46, (S)-4-((1-(4-chloro-8-(6-cyclopropylpyridin-3-yl)-1-oxo-2-phenyl-1,2-dihydroisoquinolin-3-yl)ethyl)amino)pyrido[2,3-d]pyrimidin-5(8H)-one]",27,42
